Measured values published in ChEMBL document CHEMBL4765241, “Identification and Preclinical Pharmacology of ((1 R,3 S)-1-Amino-3-(( S)-6-(2-methoxyphenethyl)-5,6,7,8-tetrahydronaphthalen-2-yl)cyclopentyl)methanol (BMS-986166): A Differentiated Sphingosine-1-phosphate Receptor 1 (S1P) Modulator Advanced into Clinical Trials” (J Med Chem, 2019).
Calls of active or inactive are those of the source. The calls are words filed in the database; no cut-off is given here.

Assays:
[1] = Protein binding in rat assessed as bound fraction; assay type: ADME; settings: read-out: PB
[2] = AUC ratio in orally dosed Sprague-Dawley rat blood assessed as phosphate metabolite to parent compound; assay type: ADME, organism-based; settings: in vivo, po
[3] = Tmax in cynomolgus monkey at 1 mg/kg, po or 1 mg/kg, iv; assay type: ADME, organism-based, Macaca fascicularis; settings: in vivo
[4] = Tmax in Sprague-Dawley rat at 1 mg/kg, po or 1 mg/kg, iv; assay type: ADME, organism-based; settings: in vivo
[5] = biological target: Cytochrome P450 2D6 (Homo sapiens, UniProt P10635); experiment: Inhibition of CYP2D6 (unknown origin); assay type: ADME
Sequence of Cytochrome P450 2D6 (P10635 whole entry): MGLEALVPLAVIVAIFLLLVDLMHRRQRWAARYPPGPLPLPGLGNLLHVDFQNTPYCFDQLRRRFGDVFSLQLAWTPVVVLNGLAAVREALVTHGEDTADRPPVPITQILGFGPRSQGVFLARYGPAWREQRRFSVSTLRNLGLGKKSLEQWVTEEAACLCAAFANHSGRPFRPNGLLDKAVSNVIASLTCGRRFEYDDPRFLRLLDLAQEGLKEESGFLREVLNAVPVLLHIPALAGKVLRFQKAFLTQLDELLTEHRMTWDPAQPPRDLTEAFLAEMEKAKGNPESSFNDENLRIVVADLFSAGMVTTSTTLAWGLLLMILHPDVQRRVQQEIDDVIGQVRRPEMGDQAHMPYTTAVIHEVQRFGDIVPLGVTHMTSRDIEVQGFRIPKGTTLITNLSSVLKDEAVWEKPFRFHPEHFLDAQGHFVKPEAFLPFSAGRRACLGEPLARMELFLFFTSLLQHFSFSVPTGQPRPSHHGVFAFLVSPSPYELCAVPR

[6] = tested on: Rattus norvegicus; experiment: Reduction in circulating lymphocytes in Lewis rat blood assessed as effective dose after oral dosing measured at 24 hrs by hematology analyzer based analysis; assay type: functional
[7] = Metabolic stability in rat liver microsomes assessed as half-life measured upto 120 mins in presence of NADPH-generating system by LC/MS/MS analysis; assay type: ADME, Microsome
[8] = Protein binding in human assessed as bound fraction; assay type: ADME; settings: read-out: PB
[9] = Metabolic stability in dog liver microsomes assessed as half-life measured upto 120 mins in presence of NADPH-generating system by LC/MS/MS analysis; assay type: ADME, Canis lupus familiaris, Microsome
[10] = tested on: Mus musculus; experiment: Antiarthritic activity in DBA/1 mouse model of collagen-induced arthritis assessed as maximum efficacy causing reduction in paw histological score administered orally once daily as single dose for 21 days; assay type: functional; settings: time 21 day
[11] = tested on: Rattus norvegicus; experiment: Drug metabolism in Lewis rat blood assessed as concentration of phosphate ester metabolite formation at 2 mg/kg, po measured at 4 hrs by LC-MS/MS analysis; settings: in vivo
[12] = Pulmonary toxicity in Lewis rat assessed as elevation of BAL protein level at 10 mg/kg by advia1800 chemistry analyzer; assay type: organism-based; settings: in vivo
[13] = AUC ratio in orally dosed cynomolgus monkey blood assessed as phosphate metabolite to parent compound; assay type: ADME, organism-based, Macaca fascicularis; settings: in vivo, po
[14] = AUC ratio in orally dosed Beagle dog blood assessed as phosphate metabolite to parent compound; assay type: ADME, organism-based, Canis lupus familiaris; settings: in vivo, po
[15] = tested on: Mus musculus; experiment: Antiarthritic activity in DBA/1 mouse model of collagen-induced arthritis assessed as reduction in paw histological score at 0.5 mg/kg, po QD administered as single dose for 21 days; assay type: functional; design: scale not given: the % may be the effect or the level left; settings: time 21 day
[16] = Oral bioavailability in cynomolgus monkey at 1 mg/kg; assay type: ADME, organism-based, Macaca fascicularis; settings: in vivo
[17] = tested on: Mus musculus; experiment: Immunosuppressive activity in MOG (35 to 55 residues)/pertussis toxin-induced experimental autoimmune encephalomyelitis C57BL/6 mouse model assessed as reduction in clinical scores for inflammation administered orally once daily starting from day 1 post immunization and measured thrice weekly until day 24; assay type: functional, organism-based; settings: dose 0.1-0.5 mg/kg
[18] = Terminal half-life in beagle dog at 1 mg/kg, iv; assay type: ADME, organism-based, Canis lupus familiaris; settings: in vivo, read-out: beta t1/2 (converted)
[19] = Clearance in Sprague-Dawley rat at 1 mg/kg, iv; assay type: ADME, organism-based; settings: in vivo
[20] = Terminal half-life in cynomolgus monkey at 1 mg/kg, iv; assay type: ADME, organism-based, Macaca fascicularis; settings: in vivo, read-out: beta t1/2 (converted)
[21] = biological target: Cytochrome P450 2C9 (Homo sapiens, UniProt P11712); experiment: Inhibition of CYP2C9 (unknown origin); assay type: ADME
Sequence of Cytochrome P450 2C9 (P11712 whole entry, the tested form may be a part): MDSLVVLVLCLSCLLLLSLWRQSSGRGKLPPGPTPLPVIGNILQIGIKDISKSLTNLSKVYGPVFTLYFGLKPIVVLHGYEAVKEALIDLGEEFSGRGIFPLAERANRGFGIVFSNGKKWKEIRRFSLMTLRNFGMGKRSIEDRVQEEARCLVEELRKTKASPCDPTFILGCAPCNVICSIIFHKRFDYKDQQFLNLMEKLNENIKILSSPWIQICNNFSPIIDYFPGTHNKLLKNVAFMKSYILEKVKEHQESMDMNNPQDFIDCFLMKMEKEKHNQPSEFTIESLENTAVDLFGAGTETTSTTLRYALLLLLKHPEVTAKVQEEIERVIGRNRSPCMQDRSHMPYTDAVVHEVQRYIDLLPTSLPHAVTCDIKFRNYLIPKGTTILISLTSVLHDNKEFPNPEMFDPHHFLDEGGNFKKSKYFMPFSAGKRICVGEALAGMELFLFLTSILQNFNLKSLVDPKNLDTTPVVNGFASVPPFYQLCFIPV

[22] = tested on: Mus musculus; experiment: Immunosuppressive activity in MOG (35 to 55 residues)/pertussis toxin-induced experimental autoimmune encephalomyelitis C57BL/6 mouse model assessed as reduction in EAE clinical scores at 0.1 to 0.5 mg/kg, po QD starting from day 1 post immunization and observed at day 12 until day 24 relative to control; assay type: functional, organism-based; settings: dose 0.1-0.5 mg/kg
[23] = Clearance in cynomolgus monkey at 1 mg/kg, iv; assay type: ADME, organism-based, Macaca fascicularis; settings: in vivo
[24] = tested on: Mus musculus; experiment: Immunosuppressive activity in MOG (35 to 55 residues)/pertussis toxin-induced experimental autoimmune encephalomyelitis C57BL/6 mouse model assessed as reduction in formation of inflammatory lesions in CNS administered orally once daily starting from day 1 post immunization and measured thrice weekly until day 24; assay type: functional, organism-based; settings: dose 0.1-0.5 mg/kg
[25] = Distribution coefficient, log D of compound at pH 6.5; assay type: physicochemical; settings: octanol/water
[26] = tested on: Mus musculus; experiment: Immunosuppressive activity in MOG (35 to 55 residues)/pertussis toxin-induced experimental autoimmune encephalomyelitis C57BL/6 mouse model assessed as maximum efficacy causing reduction in EAE spinal cord clinical score administered orally once daily starting from day 1 post immunization and measured thrice weekly until day 24; assay type: functional
[27] = Ratio of drug metabolism in Lewis rat blood assessed as phosphate ester metabolite to parent drug at 2 mg/kg, po measured at 24 hrs by LC-MS/MS analysis; assay type: ADME, organism-based; settings: in vivo
[28] = tested on: Mus musculus; experiment: Immunosuppressive activity in MOG (35 to 55 residues)/pertussis toxin-induced experimental autoimmune encephalomyelitis C57BL/6 mouse model assessed as maximum efficacy causing reduction in EAE clinical score administered orally once daily starting from day 1 post immunization and measured thrice weekly until day 24; assay type: functional
[29] = Oral bioavailability in Sprague-Dawley rat at 1 mg/kg; assay type: ADME, organism-based; settings: in vivo
[30] = Pulmonary toxicity in Lewis rat assessed as elevation of BAL protein level at 3 mg/kg by advia1800 chemistry analyzer; assay type: organism-based; settings: in vivo
[31] = biological target: Cytochrome P450 2C19 (Homo sapiens, UniProt P33261); experiment: Inhibition of CYP2C19 (unknown origin); assay type: ADME
Sequence of Cytochrome P450 2C19 (P33261 whole entry): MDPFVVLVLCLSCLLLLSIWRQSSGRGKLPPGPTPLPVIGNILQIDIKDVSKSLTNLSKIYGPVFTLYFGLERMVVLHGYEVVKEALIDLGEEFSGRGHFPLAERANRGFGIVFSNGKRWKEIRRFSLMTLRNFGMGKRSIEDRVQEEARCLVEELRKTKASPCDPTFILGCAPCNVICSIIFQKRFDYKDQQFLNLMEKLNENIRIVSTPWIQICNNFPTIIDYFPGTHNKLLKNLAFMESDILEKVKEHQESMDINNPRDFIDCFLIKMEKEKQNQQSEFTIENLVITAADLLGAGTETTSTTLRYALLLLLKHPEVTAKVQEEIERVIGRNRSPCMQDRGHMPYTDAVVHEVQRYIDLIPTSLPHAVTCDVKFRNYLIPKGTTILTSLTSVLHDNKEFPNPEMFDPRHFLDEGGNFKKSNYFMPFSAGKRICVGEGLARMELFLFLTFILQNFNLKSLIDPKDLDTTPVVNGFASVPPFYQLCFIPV

[32] = Tmax in Beagle dog at 0.3 mg/kg, po or 1 mg/kg, iv; assay type: ADME, organism-based, Canis lupus familiaris; settings: in vivo
[33] = tested on: Mus musculus; experiment: Antiarthritic activity in DBA/1 mouse model of collagen-induced arthritis assessed as reduction in clinical score administered orally once daily as single dose for 21 days; assay type: functional, organism-based; settings: time 21.0 day
[34] = biological target: T1, Cytochrome P450 1A2 (Homo sapiens, UniProt P05177); experiment: Inhibition of CYP1A2 (unknown origin); assay type: ADME
T1 sequence (P05177 whole entry): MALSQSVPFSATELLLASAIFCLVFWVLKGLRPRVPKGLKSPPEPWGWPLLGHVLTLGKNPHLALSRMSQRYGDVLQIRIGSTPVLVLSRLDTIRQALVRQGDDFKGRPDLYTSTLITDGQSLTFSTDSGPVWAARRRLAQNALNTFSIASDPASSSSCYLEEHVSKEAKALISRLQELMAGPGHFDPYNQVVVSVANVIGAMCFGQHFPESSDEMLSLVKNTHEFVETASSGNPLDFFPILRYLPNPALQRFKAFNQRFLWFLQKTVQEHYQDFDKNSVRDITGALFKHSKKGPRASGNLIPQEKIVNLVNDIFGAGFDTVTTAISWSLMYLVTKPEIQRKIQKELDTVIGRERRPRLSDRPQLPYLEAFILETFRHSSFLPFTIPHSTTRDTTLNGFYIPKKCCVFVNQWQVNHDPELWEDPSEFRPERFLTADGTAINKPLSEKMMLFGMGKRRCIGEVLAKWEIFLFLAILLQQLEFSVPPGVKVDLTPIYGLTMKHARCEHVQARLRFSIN

[35] = Drug metabolism in Lewis rat blood assessed as concentration of parent compound at 2 mg/kg, po measured at 24 hrs by LC-MS/MS analysis; assay type: ADME, organism-based; settings: read-out: Ct
[36] = tested on: Mus musculus; experiment: Antiarthritic activity in DBA/1 mouse model of collagen-induced arthritis assessed as reduction in paw histological score at 0.1 mg/kg, po QD administered as single dose for 21 days; assay type: functional; design: scale not given: the % may be the effect or the level left; settings: time 21 day
[37] = tested on: Mus musculus; experiment: Antiarthritic activity in DBA/1 mouse model of collagen-induced arthritis assessed as reduction in paw histological score administered orally once daily as single dose for 21 days; assay type: functional, organism-based; settings: time 21.0 day

COc1ccccc1CC[C@@H]1CCc2cc([C@H]3CC[C@](N)(CO)C3)ccc2C1 [UDIFITIMOD]
fraction unbound [1]: < 0.001
Ratio AUC [2]: 5.2
Tmax [3]: 6 h
Tmax [4]: 6 h
IC50 [5]: 18 µM
ED50 [6]: 0.1 mg/kg
half-life [7]: 1.62 h
fraction unbound [8]: < 0.001
half-life [9]: 6.2 h
Emax [10]: 0.5 mg/kg/day
Drug metabolism [11]: 180 nM
Activity [12]: 14 mg/dL
Ratio AUC [13]: 1
Ratio AUC [14]: 3.1
Activity [15]: 92%
bioavailability [16]: 76%
Activity [17]: Dose-dependent effect
half-life [18]: 165 h
clearance [19]: 9.7 mL/min/kg
half-life [20]: 46 h
IC50 [21]: 14 µM
Activity [22]: Active
clearance [23]: 3.8 mL/min/kg
Activity [24]: Dose-dependent effect
logD [25]: 5.05
Emax [26]: 0.5 mg/kg/day
Ratio [27]: 5
Emax [28]: 0.5 mg/kg/day
bioavailability [29]: 23%
Activity [30]: 8.8 mg/dL
IC50 [31]: 6.9 µM
Tmax [32]: 6 h
Activity [33]: Active
IC50 [34]: > 20 µM
concentration at 24 h [35]: 30 nM
Activity [36]: 41%
Activity [37]: Active
